# Source: patent US20230049952A1, “METHODS AND COMPOUNDS FOR RESTORING MUTANT P53 FUNCTION” (PMV Pharmaceuticals, Inc., priority 2020, published 2023)
# System: NF-κB signaling pathway in MT373 tumors
# Assay: MT373 syngeneic sarcoma model: mouse NF-κB signaling pathway profiling panel
# Type: in vivo
# Details: for Ccl2 mRNA downregulation / Csf2 mRNA downregulation / Egfr mRNA downregulation / Fas1 mRNA downregulation / Ifnγ mRNA downregulation / Il1α mRNA downregulation / Il1β mRNA downregulation: 150 mg/kg BID×1
structure (smiles),measurement,setting,value
"CCn1c(C#CCNc2ccccc2)cc2cc(CNC3CCN(C)CC3)ccc21 [Compound 1, 1-Anilino-3-{1-ethyl-5-[(1-methyl-4-piperidylamino)methyl]-1H-indol-2-yl}-2-propyne]",Ccl5 fold increase over or percent reduction vs vehicle control,"150 mg/kg BIDx1, […]",2.85 ± 0.20 fold or %
same,Cd27 fold increase over or percent reduction vs vehicle control,"150 mg/kg BIDx1, […]",1.48 ± 0.16 fold or %
same,Cd40 fold increase over or percent reduction vs vehicle control,"150 mg/kg BIDx1, […]",1.78 ± 0.80 fold or %
same,Cflar fold increase over or percent reduction vs vehicle control,"150 mg/kg BIDx1, […]",6.22 ± 11.55 fold or %
same,Chuk fold increase over or percent reduction vs vehicle control,"150 mg/kg BIDx1, […]",1.16 ± 0.33 fold or %
same,Crebbp fold increase over or percent reduction vs vehicle control,"150 mg/kg BIDx1, […]",16.61 ± 5.43 fold or %
same,Csf1 fold increase over or percent reduction vs vehicle control,"150 mg/kg BIDx1, […]",1.10 ± 0.10 fold or %
same,Csf2 fold increase over or percent reduction vs vehicle control,"150 mg/kg BIDx1, […]",2.00 ± 1.31 fold or %
same,Csf3 fold increase over or percent reduction vs vehicle control,"150 mg/kg BIDx1, […]",52.98 ± 22.53 fold or %
same,Egfr fold increase over or percent reduction vs vehicle control,"150 mg/kg BIDx1, […]",41.90 ± 8.16 fold or %
same,Egr1 fold increase over or percent reduction vs vehicle control,"150 mg/kg BIDx1, […]",54.35 ± 3.91 fold or %
same,Eif2ak2 fold increase over or percent reduction vs vehicle control,"150 mg/kg BIDx1, […]",18.72 ± 7.21 fold or %
same,Elk1 fold increase over or percent reduction vs vehicle control,"150 mg/kg BIDx1, […]",7.14 ± 8.40 fold or %
same,F2r fold increase over or percent reduction vs vehicle control,"150 mg/kg BIDx1, […]",1.01 ± 0.12 fold or %
same,Fadd fold increase over or percent reduction vs vehicle control,"150 mg/kg BIDx1, […]",5.68 ± 5.62 fold or %
same,Fasl fold increase over or percent reduction vs vehicle control,"150 mg/kg BIDx1, […]",3.17 ± 0.74 fold or %
same,Fos fold increase over or percent reduction vs vehicle control,"150 mg/kg BIDx1, […]",44.44 ± 21.93 fold or %
same,Hmox1 fold increase over or percent reduction vs vehicle control,"150 mg/kg BIDx1, […]",40.88 ± 33.56 fold or %
same,Icam1 fold increase over or percent reduction vs vehicle control,"150 mg/kg BIDx1, […]",1.41 ± 0.25 fold or %
same,Ifng fold increase over or percent reduction vs vehicle control,"150 mg/kg BIDx1, […]",3.22 ± 0.99 fold or %
same,Ikbkb fold increase over or percent reduction vs vehicle control,"150 mg/kg BIDx1, […]",6.97 ± 8.47 fold or %
same,Ikbke fold increase over or percent reduction vs vehicle control,"150 mg/kg BIDx1, […]",0.36 ± 10.26 fold or %
same,Ikbkg fold increase over or percent reduction vs vehicle control,"150 mg/kg BIDx1, […]",9.50 ± 15.53 fold or %
same,Il1a fold increase over or percent reduction vs vehicle control,"150 mg/kg BIDx1, […]",1.02 ± 0.18 fold or %
same,Il1b fold increase over or percent reduction vs vehicle control,"150 mg/kg BIDx1, […]",1.39 ± 0.34 fold or %
same,Il1r1 fold increase over or percent reduction vs vehicle control,"150 mg/kg BIDx1, […]",28.14 ± 8.59 fold or %
same,Il10 fold increase over or percent reduction vs vehicle control,"150 mg/kg BIDx1, […]",34.39 ± 10.47 fold or %
same,Irak1 fold increase over or percent reduction vs vehicle control,"150 mg/kg BIDx1, […]",5.30 ± 10.81 fold or %
same,Irak2 fold increase over or percent reduction vs vehicle control,"150 mg/kg BIDx1, […]",1.05 ± 0.12 fold or %
same,Irf1 fold increase over or percent reduction vs vehicle control,"150 mg/kg BIDx1, […]",1.11 ± 0.14 fold or %
same,Jun fold increase over or percent reduction vs vehicle control,"150 mg/kg BIDx1, […]",26.73 ± 6.02 fold or %
same,Lta fold increase over or percent reduction vs vehicle control,"150 mg/kg BIDx1, […]",1.87 ± 0.82 fold or %
same,Ltbr fold increase over or percent reduction vs vehicle control,"150 mg/kg BIDx1, […]",1.13 ± 0.10 fold or %
same,Map3k1 fold increase over or percent reduction vs vehicle control,"150 mg/kg BIDx1, […]",16.75 ± 8.45 fold or %
same,Mapk3 fold increase over or percent reduction vs vehicle control,"150 mg/kg BIDx1, […]",19.93 ± 6.52 fold or %
same,Myd88 fold increase over or percent reduction vs vehicle control,"150 mg/kg BIDx1, […]",9.52 ± 8.80 fold or %
same,Nfkb1 fold increase over or percent reduction vs vehicle control,"150 mg/kg BIDx1, […]",5.72 ± 2.88 fold or %
same,Nfkb2 fold increase over or percent reduction vs vehicle control,"150 mg/kg BIDx1, […]",1.01 ± 0.10 fold or %
same,Nfkbia fold increase over or percent reduction vs vehicle control,"150 mg/kg BIDx1, […]",8.21 ± 16.85 fold or %
same,Nod1 fold increase over or percent reduction vs vehicle control,"150 mg/kg BIDx1, […]",0.36 ± 14.65 fold or %
same,Raf1 fold increase over or percent reduction vs vehicle control,"150 mg/kg BIDx1, […]",7.66 ± 4.64 fold or %
same,Rel fold increase over or percent reduction vs vehicle control,"150 mg/kg BIDx1, […]",4.74 ± 2.26 fold or %
same,Rela fold increase over or percent reduction vs vehicle control,"150 mg/kg BIDx1, […]",20.75 ± 9.37 fold or %
same,Relb fold increase over or percent reduction vs vehicle control,"150 mg/kg BIDx1, […]",14.05 ± 6.91 fold or %
same,Ripk1 fold increase over or percent reduction vs vehicle control,"150 mg/kg BIDx1, […]",2.92 ± 15.10 fold or %
same,Ripk2 fold increase over or percent reduction vs vehicle control,"150 mg/kg BIDx1, […]",1.11 ± 0.29 fold or %
same,Slc20a1 fold increase over or percent reduction vs vehicle control,"150 mg/kg BIDx1, […]",20.53 ± 3.61 fold or %
same,Smad3 fold increase over or percent reduction vs vehicle control,"150 mg/kg BIDx1, […]",0.01 ± 11.30 fold or %
same,Stat1 fold increase over or percent reduction vs vehicle control,"150 mg/kg BIDx1, […]",1.20 ± 0.33 fold or %
same,Tbk1 fold increase over or percent reduction vs vehicle control,"150 mg/kg BIDx1, […]",1.03 ± 0.18 fold or %
same,Tlr1 fold increase over or percent reduction vs vehicle control,"150 mg/kg BIDx1, […]",1.33 ± 0.37 fold or %
same,Tlr2 fold increase over or percent reduction vs vehicle control,"150 mg/kg BIDx1, […]",1.05 ± 0.08 fold or %
same,Tlr3 fold increase over or percent reduction vs vehicle control,"150 mg/kg BIDx1, […]",1.02 ± 0.15 fold or %
same,Tlr4 fold increase over or percent reduction vs vehicle control,"150 mg/kg BIDx1, […]",1.04 ± 0.09 fold or %
same,Tlr6 fold increase over or percent reduction vs vehicle control,"150 mg/kg BIDx1, […]",0.43 ± 6.189 fold or %
same,Tlr9 fold increase over or percent reduction vs vehicle control,"150 mg/kg BIDx1, […]",1.29 ± 0.19 fold or %
same,Tnf fold increase over or percent reduction vs vehicle control,"150 mg/kg BIDx1, […]",1.12 ± 0.27 fold or %
same,Tnfaip3 fold increase over or percent reduction vs vehicle control,"150 mg/kg BIDx1, […]",11.08 ± 10.07 fold or %
same,Tnfrsf1a fold increase over or percent reduction vs vehicle control,"150 mg/kg BIDx1, […]",17.69 ± 12.43 fold or %
same,Tnfrsf1b fold increase over or percent reduction vs vehicle control,"150 mg/kg BIDx1, […]",1.08 ± 0.19 fold or %
same,Tnfrsf10b fold increase over or percent reduction vs vehicle control,"150 mg/kg BIDx1, […]",1.19 ± 15.33 fold or %
same,Tnfsf10 fold increase over or percent reduction vs vehicle control,"150 mg/kg BIDx1, […]",1.18 ± 0.41 fold or %
same,Tnfsf14 fold increase over or percent reduction vs vehicle control,"150 mg/kg BIDx1, […]",1.09 ± 0.34 fold or %
same,Tollip fold increase over or percent reduction vs vehicle control,"150 mg/kg BIDx1, […]",13.73 ± 7.04 fold or %
same,Tradd fold increase over or percent reduction vs vehicle control,"150 mg/kg BIDx1, […]",1.02 ± 0.22 fold or %
same,Traf2 fold increase over or percent reduction vs vehicle control,"150 mg/kg BIDx1, […]",1.01 ± 0.11 fold or %
same,Traf3 fold increase over or percent reduction vs vehicle control,"150 mg/kg BIDx1, […]",17.66 ± 4.06 fold or %
same,Traf5 fold increase over or percent reduction vs vehicle control,"150 mg/kg BIDx1, […]",1.10 ± 0.12 fold or %
same,Traf6 fold increase over or percent reduction vs vehicle control,"150 mg/kg BIDx1, […]",12.35 ± 5.34 fold or %
same,Zap70 fold increase over or percent reduction vs vehicle control,"150 mg/kg BIDx1, […]",2.40 ± 0.39 fold or %
same,Ccl2 mRNA downregulation,24 h,57.69%
same,Csf2 mRNA downregulation,24 h,61.29%
same,Egfr mRNA downregulation,24 h,28.45%
same,Fas1 mRNA downregulation,24 h,31.85%
same,Ifnγ mRNA downregulation,24 h,35.82%
same,Il1α mRNA downregulation,24 h,13.50%
same,Il1β mRNA downregulation,24 h,63.25%
same,Ccl2 mRNA downregulation,48 h,67.28%
same,Csf2 mRNA downregulation,48 h,62.24%
same,Egfr mRNA downregulation,48 h,24.42%
same,Ifnγ mRNA downregulation,48 h,43.46%
same,Il1α mRNA downregulation,48 h,28.88%
same,Il1β mRNA downregulation,48 h,18.73%
same,Ccl2 mRNA downregulation,72 h,52.53%
same,Fas1 mRNA downregulation,72 h,42.85%
same,Ifnγ mRNA downregulation,72 h,22.04%
same,Il1α mRNA downregulation,72 h,63.60%
same,Il1β mRNA downregulation,72 h,84.09%
same,Egfr mRNA downregulation,[…],41.90%
